Here are results for two compounds from ChEMBL document CHEMBL6087451, “Design, Synthesis, and Biological Evaluation of 2-Arylaminopyrimidine Derivatives as Dual Cathepsin L and JAK Inhibitors for the Treatment of Acute Lung Injury” (J Med Chem, 2025).

Active and inactive are the calls of the source. The rule behind the calls is not given here.

The half-life is how long it takes for the measured level to halve. High values mean slow loss, low ones fast loss. By bioavailability is commonly meant dose-corrected exposure relative to a reference, in per cent. As usually defined, the inhibition is the change of the read-out against control, counted positive when it falls. As usually defined, the AUC(0-t) is the area under the concentration-time curve up to a stated or last time point. Low readings indicate low exposure, high ones high exposure. As a reminder, the IC50 is the midpoint of a concentration-inhibition curve.

The test system of data set [1] is Mus musculus. Kind of data set: Anti-inflammatory activity in C57BL/6 mouse model of LPS-induced acute lung injury assessed as decrease in IL-6 mRNA level in lung at 10 mg/kg, ip treated for 3 days followed by LPS treatment after 1 hr post-compound administration on fourth day measured after 18 hrs post-LPS treatment by RT-qPCR analysis. The class given is functional, organism-based. As to conditions: time 91.0 hrs. (In qPCR the cycle at which signal appears reflects the starting amount.)

Data set [2] is described as follows: Half life in Sprague-Dawley rat at 3.5 mg/kg, iv measured for 24 hrs by LC-MS/MS analysis. It is filed as ADME, organism-based. As to conditions: in vivo.
The subject of data set [3] is Mus musculus. Kind of data set: Anti-inflammatory activity in C57BL/6 mouse model of LPS-induced acute lung injury assessed as decrease in alveolar hemorrhage in lung at 10 mg/kg, ip treated for 3 days followed by LPS treatment after 1 hr post-compound administration on fourth day measured after 18 hrs post-LPS treatment by H and E staining based analysis. It is filed as functional, organism-based. As to conditions: time 91.0 hrs.

A short description of data set [4]: Oral bioavailability in Sprague-Dawley rat at 3.5 mg/kg measured for 24 hrs by LC-MS/MS analysis. The class given is ADME, organism-based. To be noted: in vivo.
Data set [5] concerns Mus musculus. Kind of data set: In vivo inhibition of mature CTSL in lung of C57BL/6 mouse model of LPS-induced acute lung injury at 10 to 20 mg/kg, ip treated for 3 days followed by LPS treatment after 1 hr post-compound administration on fourth day measured after 18 hrs post-LPS treatment by Western blot analysis. As to conditions: dose 10-20 mg/kg, time 91.0 hrs. It is filed as functional, organism-based. On the technique in general: Immunoblotting shows a protein as a band on a membrane.

The nature of data set [6]: AUC (0 to t) in Sprague-Dawley rat at 3.5 mg/kg, ip measured for 24 hrs by LC-MS/MS analysis. To be noted: in vivo. The class given is ADME, organism-based.
The subject of data set [7] is Mus musculus. Kind of data set: Anti-inflammatory activity in C57BL/6 mouse model of LPS-induced acute lung injury assessed as decrease in IL-1beta mRNA level in lung at 10 mg/kg, ip treated for 3 days followed by LPS treatment after 1 hr post-compound administration on fourth day measured after 18 hrs post-LPS treatment by RT-qPCR analysis. The class given is functional, organism-based. As to conditions: time 91.0 hrs.

In data set [8] the test system is RAW264.7. Kind of data set: Anti-inflammatory activity against mouse RAW264.7 cells assessed as inhibition of LPS-induced COX-2 level by Western blot analysis. The class given is functional, cell-based. As to conditions: dose 50-500 nM.
The test system of data set [9] is Mus musculus. Kind of data set: Anti-inflammatory activity in C57BL/6 mouse model of LPS-induced acute lung injury assessed as decrease in number of total cells in BALF at 10 mg/kg, ip treated for 3 days followed by LPS treatment after 1 hr post-compound administration on fourth day measured after 18 hrs post-LPS treatment. As to conditions: time 91.0 hrs. It is filed as functional, organism-based.

The next data set addresses Procathepsin L (Homo sapiens, UniProt P07711). Put plainly: Induction of thermal stabilization of pro-CTSL in protein lysate extracted from human THP-1 cells pretreated for 6 hrs followed by heat exposure at 37 to 62 degreeC for 3 mins by CETSA. To be noted: time 363.0 min. The class given is subcellular.
Data set [10] has as its target Receptor-type tyrosine-protein kinase FLT3 (Homo sapiens) (UniProt P36888). Put plainly: Inhibition of FLT3 (unknown origin) at 1 uM by kinase profiling analysis relative to control.
In data set [11] the target is Non-receptor tyrosine-protein kinase TYK2 (Homo sapiens, UniProt P29597). Put plainly: Inhibition of TYK2 (unknown origin) using TK-biotin as substrate incubated for 120 mins in presence of ATP by HTRF assay. In general terms: In TR-FRET formats the signal depends on donor and acceptor labels being close together.
Non-receptor tyrosine-protein kinase TYK2, sequence (P29597 whole entry): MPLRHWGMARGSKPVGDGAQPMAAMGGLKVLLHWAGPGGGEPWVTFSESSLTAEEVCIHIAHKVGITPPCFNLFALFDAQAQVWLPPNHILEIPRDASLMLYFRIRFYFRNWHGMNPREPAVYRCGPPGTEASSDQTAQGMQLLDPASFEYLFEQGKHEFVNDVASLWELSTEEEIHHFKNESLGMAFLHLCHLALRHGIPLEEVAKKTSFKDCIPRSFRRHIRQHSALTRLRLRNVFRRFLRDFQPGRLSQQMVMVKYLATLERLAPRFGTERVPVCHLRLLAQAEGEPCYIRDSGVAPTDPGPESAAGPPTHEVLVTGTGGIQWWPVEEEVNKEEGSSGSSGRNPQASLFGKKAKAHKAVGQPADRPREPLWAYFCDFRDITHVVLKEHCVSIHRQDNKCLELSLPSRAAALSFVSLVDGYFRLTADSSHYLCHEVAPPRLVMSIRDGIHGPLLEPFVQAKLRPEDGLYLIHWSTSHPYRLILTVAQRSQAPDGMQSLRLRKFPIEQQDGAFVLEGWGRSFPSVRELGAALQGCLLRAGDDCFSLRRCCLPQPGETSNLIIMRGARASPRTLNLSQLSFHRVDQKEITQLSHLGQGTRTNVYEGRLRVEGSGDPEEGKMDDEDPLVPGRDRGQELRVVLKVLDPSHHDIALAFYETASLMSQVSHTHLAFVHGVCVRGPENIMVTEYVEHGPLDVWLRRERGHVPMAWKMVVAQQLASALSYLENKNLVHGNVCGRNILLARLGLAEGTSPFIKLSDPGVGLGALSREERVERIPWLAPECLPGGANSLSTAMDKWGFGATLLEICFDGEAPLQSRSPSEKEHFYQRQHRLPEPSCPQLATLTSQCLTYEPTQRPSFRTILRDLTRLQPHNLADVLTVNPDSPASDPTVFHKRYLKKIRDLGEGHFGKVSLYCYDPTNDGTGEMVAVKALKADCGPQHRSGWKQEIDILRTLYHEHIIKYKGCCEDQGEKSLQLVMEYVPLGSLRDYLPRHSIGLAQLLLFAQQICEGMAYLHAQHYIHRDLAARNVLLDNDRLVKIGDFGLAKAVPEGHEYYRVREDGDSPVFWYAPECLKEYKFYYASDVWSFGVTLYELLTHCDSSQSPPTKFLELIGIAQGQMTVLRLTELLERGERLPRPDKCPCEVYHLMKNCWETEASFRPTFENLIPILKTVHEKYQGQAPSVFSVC
Data set [12] concerns HBE. Put plainly: Anti-inflammatory activity against HBE cells assessed as inhibition of LPS-induced IL-6 level pretreated for 30 mins followed by LPS treatment for 24 hrs by ELISA. As to conditions: Homo sapiens, dose <= 5.0 µM, time 24.5 hrs.
For data set [13], the system named is RAW264.7. Kind of data set: Anti-inflammatory activity against mouse RAW264.7 cells transfected with CTSL siRNA assessed as inhibition of LPS-induced IL-6 level by Western blot analysis. It is filed as functional, cell-based.
Data set [14] has as its system HBE. Put plainly: Anti-inflammatory activity against HBE cells assessed as inhibition of LPS-induced IL-8 level pretreated for 30 mins followed by LPS treatment for 24 hrs by ELISA. As to conditions: Homo sapiens, dose <= 5.0 µM, time 24.5 hrs.
Data set [15] addresses T1, Serine/threonine-protein kinase Chk1 (Homo sapiens) (UniProt O14757).
T1 sequence (whole entry): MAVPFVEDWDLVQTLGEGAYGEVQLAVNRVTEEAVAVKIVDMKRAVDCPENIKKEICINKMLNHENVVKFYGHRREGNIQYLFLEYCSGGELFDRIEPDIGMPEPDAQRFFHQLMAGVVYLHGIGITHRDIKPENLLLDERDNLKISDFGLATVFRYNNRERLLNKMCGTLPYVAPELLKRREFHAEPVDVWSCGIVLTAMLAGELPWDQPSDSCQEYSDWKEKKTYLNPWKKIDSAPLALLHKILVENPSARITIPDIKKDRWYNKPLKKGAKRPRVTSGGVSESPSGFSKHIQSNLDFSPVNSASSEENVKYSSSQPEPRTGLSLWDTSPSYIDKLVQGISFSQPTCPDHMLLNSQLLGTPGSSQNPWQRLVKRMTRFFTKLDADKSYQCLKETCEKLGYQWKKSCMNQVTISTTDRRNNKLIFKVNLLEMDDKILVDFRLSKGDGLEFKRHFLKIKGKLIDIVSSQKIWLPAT
Put plainly: Inhibition of CHK1 (unknown origin) at 1 uM by kinase profiling analysis relative to control.

Procathepsin L, sequence (P07711 114-333 limits assumed): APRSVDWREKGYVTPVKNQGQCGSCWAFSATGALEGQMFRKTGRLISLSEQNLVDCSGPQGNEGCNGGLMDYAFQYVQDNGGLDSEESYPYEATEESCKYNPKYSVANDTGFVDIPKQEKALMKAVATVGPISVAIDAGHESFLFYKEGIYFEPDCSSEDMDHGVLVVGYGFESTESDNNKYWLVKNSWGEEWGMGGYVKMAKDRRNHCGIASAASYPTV
Receptor-type tyrosine-protein kinase FLT3 (Homo sapiens), sequence (P36888 whole entry): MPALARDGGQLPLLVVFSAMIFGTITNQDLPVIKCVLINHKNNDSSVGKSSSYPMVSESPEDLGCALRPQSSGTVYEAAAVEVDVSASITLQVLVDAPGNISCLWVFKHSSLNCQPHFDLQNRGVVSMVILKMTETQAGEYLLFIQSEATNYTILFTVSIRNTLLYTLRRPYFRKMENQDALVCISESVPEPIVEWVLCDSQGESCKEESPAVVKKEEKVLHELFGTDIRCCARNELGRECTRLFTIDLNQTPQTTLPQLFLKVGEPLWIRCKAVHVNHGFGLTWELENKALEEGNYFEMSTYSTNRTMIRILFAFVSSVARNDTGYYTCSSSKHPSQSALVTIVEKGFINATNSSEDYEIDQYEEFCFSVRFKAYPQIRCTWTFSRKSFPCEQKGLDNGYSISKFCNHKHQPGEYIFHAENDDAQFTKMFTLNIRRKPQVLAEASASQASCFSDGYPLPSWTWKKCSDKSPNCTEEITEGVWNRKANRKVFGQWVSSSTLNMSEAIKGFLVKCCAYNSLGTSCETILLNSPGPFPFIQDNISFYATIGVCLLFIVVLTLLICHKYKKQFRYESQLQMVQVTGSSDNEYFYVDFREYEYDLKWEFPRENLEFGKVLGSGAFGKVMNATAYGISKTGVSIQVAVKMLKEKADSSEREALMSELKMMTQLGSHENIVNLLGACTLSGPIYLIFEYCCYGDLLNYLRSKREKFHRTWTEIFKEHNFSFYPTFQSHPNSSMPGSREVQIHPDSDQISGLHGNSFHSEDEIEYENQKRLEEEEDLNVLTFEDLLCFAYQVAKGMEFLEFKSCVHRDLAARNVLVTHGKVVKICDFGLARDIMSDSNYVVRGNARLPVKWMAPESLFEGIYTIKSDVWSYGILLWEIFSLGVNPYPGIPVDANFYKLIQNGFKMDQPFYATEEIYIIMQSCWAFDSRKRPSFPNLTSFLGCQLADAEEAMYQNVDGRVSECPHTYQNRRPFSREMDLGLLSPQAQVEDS

Turning to `Cc1ccc(Nc2nccc(-c3cn(C)c4ccccc34)n2)cc1N.Cl`, the result in the data set on Mus musculus [1], in the data set with Mus musculus [3], with Mus musculus [7], with Mus musculus [9] and on Procathepsin L was Active. Further, the half-life in data set [2] was 5.06 h. In data set [4], this compound registered a bioavailability of 51.1%. Moreover, the inhibition entry with Mus musculus [5] was “Active”. This compound returned an AUC(0-t) at 24 h in data set [6] of 1510 ng·h/mL. Also, the inhibition entry in the data set with RAW264.7 [8] is “Dose-dependent-effect”.

As to `Cl.Cn1cc(-c2ccnc(Nc3cccc(N)c3)n2)c2ccccc21`, the result in the data set with Mus musculus [1], in the data set on Mus musculus [3], in the data set on Mus musculus [7], in the data set with Mus musculus [9] and on Procathepsin L was Active. Further, the inhibition in [10] was 103%; in the data set on RAW264.7 [8] it was “Dose-dependent-effect”; with HBE [12], “Dose-dependent-effect”; in the data set with HBE [14], “Dose-dependent-effect”; in data set [15] it was 81.7%. The compound also showed a half-life in [2] of 8.29 h. This compound came in with a bioavailability in data set [4] of 24.9%. In the data set with Mus musculus [5], the inhibition result was “Active”. This compound also came in with an AUC(0-t) at 24 h in data set [6] of 407 ng·h/mL. Moreover, the IC50 in [11] amounted to 173 nM. Also, the inhibition entry in the data set on RAW264.7 [13] is “inactive”.
